US9789115B2 (priority 2010, dated 2017)

Columns and labels:
naïve rats = conditions: rat, in vivo
[1] = tested on: operated rats (plantar incision); conditions: rat, in vivo
[2] = tested on: opioid-treated operated rats; experiment: Experimental protocol 2: OIH precipitated by naloxone, withdrawal responses with von Frey filaments; format: in vivo, rat; conditions: for naloxone-precipitated hyperalgesia: naloxone on day 21
sigma 2 (σ-2) site = sigma 2 (σ-2) site (Homo sapiens, UniProt Q5BJF2); conditions: cited from earlier work
sigma 2 (σ-2) site, sequence (Q5BJF2 whole entry): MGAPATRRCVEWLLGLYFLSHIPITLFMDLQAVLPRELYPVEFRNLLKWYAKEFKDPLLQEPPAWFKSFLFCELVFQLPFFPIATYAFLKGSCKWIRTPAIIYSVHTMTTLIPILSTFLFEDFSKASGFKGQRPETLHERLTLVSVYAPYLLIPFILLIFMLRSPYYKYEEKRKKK

CN1CCN(CCc2ccc(Cl)c(Cl)c2)CC1 [BD-1063]
enhancement of allodynia induced by morphine administration (naïve rats): reduces the enhancement of allodynia | morphine-induced hyperalgesia (naïve rats): inhibited

Cc1cc(OCCN2CCOCC2)nn1-c1ccc2ccccc2c1 [compound n° 63, 4-{2-[5-Methyl-1-(naphthalen-2-yl)-1H-pyrazol-3-yloxy]ethyl}morpholine]
allodynia secondary to surgery and OIH when Morphine was used [1]: inhibits allodynia secondary to surgery and OIH | decrease of the mechanical sensitization threshold induced by the surgery [1]: inhibit dose-dependently | development of OIH [1]: inhibits dose-dependently | enhancement of allodynia induced by perioperative morphine [1]: strongly reduced | naloxone-precipitated hyperalgesia ([2]; 80 mg/kg co-administered with last dose of opioid): unable to precipitate hyperalgesia | naloxone-precipitated hyperalgesia ([2]; 20 and 40 mg/kg co-administered with last dose of opioid): attenuation

CN1CC[C@]23c4c5ccc(O)c4O[C@H]2[C@@H](O)C=C[C@H]3[C@H]1C5 [morphine]
analgesic effect of the opioid ([1]; ip): analgesic effect

C=CCN1CC[C@]23c4c5ccc(O)c4O[C@H]2C(=O)CC[C@@]3(O)[C@H]1C5 [naloxone]
nociceptive threshold after naloxone injection ([2]; naloxone 2 mg/kg on day 21 in opioid-treated rats): significant decrease in the nociceptive threshold below the basal value | nociceptive threshold after naloxone injection ([2]; naloxone 2 mg/kg on day 21 in vehicle saline-treated rats): no significant effect

SKF 10047
affinity for the sigma 2 site (sigma 2 (σ-2) site): micromolar affinity
